The target of one assay is T1, BTK (Homo sapiens, UniProt Q06187).
T1 construct: purchased Signalchem B10-10H
In words: Inhibitory activity against BTK, ADP-Glo Kinase system (Promega). The class given is biochemical. The method in brief:
(§1)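 ADP-Glo luminescent ADP detection with recombinant human ITK (4 ng/reaction) or BTK (10 ng/reaction) and poly(Glu4,Tyr1) substrate at 0.2 µg/µl. Buffer: Tris pH 7.5, MgCl2, MnCl2, BSA, DTT. ATP 1 mM or Km (BTK 10 µM, ITK 25 µM); 1% DMSO; 1 h at 30°C; IC50 from curve fit.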

In a further assay the target is T2, ITK (Homo sapiens, UniProt Q08881).
T2 construct: purchased Signalchem I13-11G-10
T2 sequence (Q08881 1-620): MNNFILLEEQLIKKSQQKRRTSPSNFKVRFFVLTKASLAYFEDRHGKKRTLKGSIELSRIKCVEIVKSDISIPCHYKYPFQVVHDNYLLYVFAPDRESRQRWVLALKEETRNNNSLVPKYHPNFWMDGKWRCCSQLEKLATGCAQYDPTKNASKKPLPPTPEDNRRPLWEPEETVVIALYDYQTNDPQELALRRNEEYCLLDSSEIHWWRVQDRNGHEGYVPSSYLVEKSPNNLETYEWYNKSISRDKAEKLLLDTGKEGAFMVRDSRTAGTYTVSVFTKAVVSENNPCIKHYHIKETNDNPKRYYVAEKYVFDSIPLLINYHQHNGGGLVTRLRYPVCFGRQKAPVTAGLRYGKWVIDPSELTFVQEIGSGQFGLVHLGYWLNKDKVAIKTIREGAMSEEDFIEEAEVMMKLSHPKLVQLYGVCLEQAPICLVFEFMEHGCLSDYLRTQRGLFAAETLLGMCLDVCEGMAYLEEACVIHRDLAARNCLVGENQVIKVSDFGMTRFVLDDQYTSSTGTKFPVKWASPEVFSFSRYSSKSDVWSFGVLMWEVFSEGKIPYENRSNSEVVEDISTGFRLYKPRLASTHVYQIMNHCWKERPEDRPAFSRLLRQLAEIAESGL
In words: Inhibitory activity against ITK, ADP-Glo Kinase system (Promega). It counts as biochemical. The method in brief: as §1
A general note: ADP-Glo first removes unused ATP, then detects ADP through luciferase.

Setting [1] is: 1mM ATP, read-out: BTK IC50(nM) 1mM ATP.
Where [2] appears, read: 1mM ATP, read-out: ITK IC50(nM) 1mM ATP.
[3] abbreviates: Km ATP (BTK: 10 uM), read-out: BTK IC50(nM) Km ATP.
Setting [4] is: Km ATP (ITK: 25uM), read-out: ITK IC50(nM) Km ATP.

The structures appear in SMILES notation. Read-outs that look alike come from different tables or passages of the source.

T1 sequence (Q06187 whole entry): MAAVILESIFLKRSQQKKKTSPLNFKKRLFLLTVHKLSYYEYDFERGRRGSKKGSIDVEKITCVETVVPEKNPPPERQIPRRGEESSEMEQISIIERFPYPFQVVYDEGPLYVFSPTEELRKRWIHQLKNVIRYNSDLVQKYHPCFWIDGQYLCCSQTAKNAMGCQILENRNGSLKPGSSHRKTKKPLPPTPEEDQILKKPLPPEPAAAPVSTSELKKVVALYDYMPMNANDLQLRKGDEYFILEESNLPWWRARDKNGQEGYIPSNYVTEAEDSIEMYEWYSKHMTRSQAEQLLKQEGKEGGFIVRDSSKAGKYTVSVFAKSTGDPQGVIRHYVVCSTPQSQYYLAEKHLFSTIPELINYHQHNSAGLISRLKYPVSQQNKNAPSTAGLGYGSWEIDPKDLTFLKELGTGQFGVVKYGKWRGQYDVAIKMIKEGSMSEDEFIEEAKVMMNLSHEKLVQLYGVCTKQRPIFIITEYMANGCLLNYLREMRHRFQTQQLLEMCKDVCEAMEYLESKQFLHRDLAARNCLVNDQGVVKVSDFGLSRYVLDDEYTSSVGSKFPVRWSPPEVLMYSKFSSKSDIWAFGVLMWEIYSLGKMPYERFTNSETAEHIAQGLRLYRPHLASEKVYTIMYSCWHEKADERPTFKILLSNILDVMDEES

As to `C=CC(=O)N1C[C@@H](Oc2nc(Nc3ncc(C)s3)cc3c2ccn3CC)C[C@@H]1C` [Example 186, 1-((2S,4S)-4-((1-ethyl-6-((5-methylthiazol-2-yl)amino)-1H-pyrrolo[3,2-c]pyridin-4-yl)oxy)-2-methylpyrrolidin-1-yl)prop-2-en-1-one], the concentration for half-maximal inhibition (IC50) on BTK (setting [1]) and on ITK (setting [2]) was at most 20 nM each time.

Turning to `C=CC(=O)N1CC[C@H](Oc2nc(Nc3ncc(C)s3)cc3c2ccn3CCCC)C1` [Example 124, (S)-1-(3-((1-butyl-6-((5-methylthiazol-2-yl)amino)-1H-pyrrolo[3,2-c]pyridin-4-yl)oxy)pyrrolidin-1-yl)prop-2-en-1-one], the half-inhibitory concentration (IC50) at BTK (setting [3]) and on ITK (setting [4]) was at most 20 nM each time.

Turning to `C=CC(=O)N1C[C@@H](Oc2nc(Nc3ncc(C)s3)cc3c2ccn3C(C)C)C[C@H]1C` [Example 87, 1-((2R,4S)-4-((1-isopropyl-6-((5-methylthiazol-2-yl)amino)-1H-pyrrolo[3,2-c]pyridin-4-yl)oxy)-2-methylpyrrolidin-1-yl)prop-2-en-1-one], the IC50 at BTK (setting [1]) and at ITK (setting [2]) was at most 20 nM each time.

Regarding `C=CC(=O)N1CC[C@H](Oc2nc(Nc3ncc(CC)s3)cc3c2ccn3CC(C)C)C1` [Example 122, (S)-1-(3-((6-((5-ethylthiazol-2-yl)amino)-1-isobutyl-1H-pyrrolo[3,2-c]pyridin-4-yl)oxy)pyrrolidin-1-yl)prop-2-en-1-one], the IC50 on BTK (setting [3]) and at ITK (setting [4]) was at most 20 nM throughout.

Turning to `C=CC(=O)N1CCC2(CC(Oc3nc(Nc4ncc(C)s4)cc4c3ccn4CC(C)C)C2)C1` (stereo not shown) [Example 202, 1-(2-((1-isobutyl-6-((5-methylthiazol-2-yl)amino)-1H-pyrrolo[3,2-c]pyridin-4-yl)oxy)-6-azaspiro[3.4]octan-6-yl)prop-2-en-1-one], the IC50 at BTK (setting [1]) and on ITK (setting [2]) was 100 to 500 nM throughout.

For `C#CC(=O)N1C[C@H](F)[C@H](Oc2nc(Nc3ncc(C)s3)cc3c2ccn3CC(C)C)C1` [Example 231, 1-((3S,4R)-3-fluoro-4-((1-isobutyl-6-((5-methylthiazol-2-yl)amino)-1H-pyrrolo[3,2-c]pyridin-4-yl)oxy)pyrrolidin-1-yl)prop-2-yn-1-one], the IC50 on BTK (setting [1]) and on ITK (setting [2]) was at most 20 nM in each case.

As for `C=CC(=O)N1C[C@@H](Oc2nc(Nc3ncc(C)s3)cc3c2ccn3CC(F)(F)F)C[C@H]1C` [Example 212, 1-((2R,4S)-2-methyl-4-((6-((5-methylthiazol-2-yl)amino)-1-(2,2,2-trifluoroethyl)-1H-pyrrolo[3,2-c]pyridin-4-yl)oxy)pyrrolidin-1-yl)prop-2-en-1-one], the IC50 at BTK (setting [1]) and on ITK (setting [2]) was at most 20 nM throughout.

As to `C=CC(=O)N1C2C=C(c3nc(Nc4ncc(C)s4)cc4c3ccn4C)CC1CCC2` (stereo not shown) [Example 36, 1-(3-(1-methyl-6-((5-methylthiazol-2-yl)amino)-1H-pyrrolo[3,2-c]pyridin-4-yl)-9-azabicyclo[3.3.1]non-2-en-9-yl)prop-2-en-1-one], the IC50 at BTK (setting [1]) and at ITK (setting [2]) was at most 20 nM in each case.

On to `C=CC(=O)N1C[C@H](F)[C@H](Oc2nc(Nc3ncc(C)s3)cc3c2ccn3CC(F)(F)F)C1` [Example 211, 1-((3S,4R)-3-fluoro-4-((6-((5-methylthiazol-2-yl)amino)-1-(2,2,2-trifluoroethyl)-1H-pyrrolo[3,2-c]pyridin-4-yl)oxy)pyrrolidin-1-yl)prop-2-en-1-one], for which the concentration for half-maximal inhibition (IC50) on BTK (setting [1]) and at ITK (setting [2]) was at most 20 nM in each case.

Regarding `C=CC(=O)N1CC=C(c2nc(Nc3ncc(C)s3)cc3c2ccn3CC(F)(F)F)CC1` [Example 19, 1-(4-(6-((5-methylthiazol-2-yl)amino)-1-(2,2,2-trifluoroethyl)-1H-pyrrolo[3,2-c]pyridin-4-yl)-3,6-dihydropyridin-1(2H)-yl)prop-2-en-1-one], the concentration for half-maximal inhibition (IC50) – broadly, the concentration at which inhibition is half-maximal – on BTK (setting [1]) was 20 to 100 nM; at BTK (setting [3]), at most 20 nM; on ITK (setting [2]), 100 to 500 nM; on ITK (setting [4]), at most 20 nM.

Turning to `C=CC(=O)Nc1cc(-c2nc(Nc3ncc(C)s3)cc3c2ccn3CC2CC2)ccc1F` [Example 64, N-(5-(1-(cyclopropylmethyl)-6-((5-methylthiazol-2-yl)amino)-1H-pyrrolo[3,2-c]pyridin-4-yl)-2-fluorophenyl)acrylamide], the half-inhibitory concentration (IC50) on BTK (setting [3]) and at ITK (setting [4]) was at most 20 nM throughout.

Turning to `C=CC(=O)Nc1cccc(-c2nc(Nc3ncc(C)s3)cc3c2ccn3CC2CCOCC2)c1F` [Example 73, N-(2-fluoro-3-(6-((5-methylthiazol-2-yl)amino)-1-((tetrahydro-2H-pyran-4-yl)methyl)-1H-pyrrolo[3,2-c]pyridin-4-yl)phenyl)acrylamide], the IC50 at BTK (setting [3]) and on ITK (setting [4]) was at most 20 nM each time.

As to `C=CC(=O)N1CC[C@H](Oc2nc(Nc3ncc(C)s3)cc3c2ccn3C2CCCC2)C1` [Example 99, (S)-1-(3-((1-cyclopentyl-6-((5-methylthiazol-2-yl)amino)-1H-pyrrolo[3,2-c]pyridin-4-yl)oxy)pyrrolidin-1-yl)prop-2-en-1-one], the IC50 at BTK (setting [1]) and on ITK (setting [2]) was at most 20 nM each time.

As to `C=CC(=O)N1C[C@H](F)[C@H](Oc2nc(Nc3ncc(C)s3)cc3c2ccn3CCCF)C1` [Example 191, 1-((3S,4R)-3-fluoro-4-((1-(3-fluoropropyl)-6-((5-methylthiazol-2-yl)amino)-1H-pyrrolo[3,2-c]pyridin-4-yl)oxy)pyrrolidin-1-yl)prop-2-en-1-one], the 50% inhibitory concentration (IC50) at BTK (setting [1]) and on ITK (setting [2]) was at most 20 nM throughout.

For `C=CC(=O)N1CC[C@H](Oc2nc(Nc3nccnc3OC)cc3c2ccn3C(C)C)C1` [Example 184, (S)-1-(3-((1-isopropyl-6-((3-methoxypyrazin-2-yl)amino)-1H-pyrrolo[3,2-c]pyridin-4-yl)oxy)pyrrolidin-1-yl)prop-2-en-1-one], the half-maximal inhibitory concentration (IC50) at BTK (setting [1]) and on ITK (setting [2]) was over 500 nM in each case.

With `C=CC(=O)N1CCC[C@H](COc2nc(Nc3ncc(C)s3)cc3c2ccn3CC(C)C)C1` [Example 215, (S)-1-(3-(((1-isobutyl-6-((5-methylthiazol-2-yl)amino)-1H-pyrrolo[3,2-c]pyridin-4-yl)oxy)methyl)piperidin-1-yl)prop-2-en-1-one], the IC50 was at most 20 nM at BTK (setting [1]) and 100 to 500 nM at ITK (setting [2]).

For `C=CC(=O)N1CC[C@H](Oc2nc(Nc3cc(C)ncn3)cc3c2ccn3CC(C)C)C1` [Example 104, (S)-1-(3-((1-isobutyl-6-((6-methylpyrimidin-4-yl)amino)-1H-pyrrolo[3,2-c]pyridin-4-yl)oxy)pyrrolidin-1-yl)prop-2-en-1-one], the IC50 on BTK (setting [1]) and at ITK (setting [2]) was 20 to 100 nM throughout.

As to `C=CC(=O)N1CCCCC12CC(Oc1nc(Nc3ncc(C)s3)cc3c1ccn3CC(C)C)C2` (stereo not shown) [Example 203, 1-(2-((1-isobutyl-6-((5-methylthiazol-2-yl)amino)-1H-pyrrolo[3,2-c]pyridin-4-yl)oxy)-5-azaspiro[3.5]nonan-5-yl)prop-2-en-1-one], the half-inhibitory concentration (IC50) at BTK (setting [1]) and at ITK (setting [2]) was over 500 nM throughout.

With `C=CC(=O)N1CC[C@H](Oc2nc(Nc3ccn(C)n3)cc3c2ccn3C(C)C)C1` [Example 193, (S)-1-(3-((1-isopropyl-6-((1-methyl-1H-pyrazol-3-yl)amino)-1H-pyrrolo[3,2-c]pyridin-4-yl)oxy)pyrrolidin-1-yl)prop-2-en-1-one], the half-inhibitory concentration (IC50) on BTK (setting [1]) and at ITK (setting [2]) was over 500 nM in each case.
